Measurements reported in PubChem BioAssay (NCI).
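Tested at 5 concentrations; 48 h exposure; 96-well plates; endpoints linearly interpolated, else capped at highest concentration. Here, GI50 denotes the concentration required for 50% inhibition of growth. Definition used: TGI = concentration required for complete inhibition of growth.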

How the values were obtained:
Assay in all cases: NCI-60 cell line screen, 48 h
A549 NSCLC = test system: A549 NSCLC
NCI-H460 lung = test system: NCI-H460 lung
NCI-H522 lung = test system: NCI-H522 lung
OVCAR-5 ovarian = test system: OVCAR-5 ovarian
OVCAR-8 ovarian = test system: OVCAR-8 ovarian
SK-MEL-28 melanoma = test system: SK-MEL-28 melanoma
SNB-75 CNS = test system: SNB-75 CNS
TK-10 renal = test system: TK-10 renal
UO-31 renal = test system: UO-31 renal
RXF 393 renal = test system: RXF 393 renal
MDA-MB-231 breast = test system: MDA-MB-231 breast
T-47D breast = test system: T-47D breast

| SMILES | TGI (A549 NSCLC) | TGI (NCI-H460 lung) | TGI (NCI-H522 lung) | TGI (OVCAR-5 ovarian) | TGI (OVCAR-8 ovarian) | TGI (SK-MEL-28 melanoma) | TGI (SNB-75 CNS) | TGI (TK-10 renal) | TGI (UO-31 renal) | TGI (RXF 393 renal) | TGI (MDA-MB-231 breast) | GI50 (NCI-H522 lung) | GI50 (OVCAR-5 ovarian) | GI50 (SNB-75 CNS) | GI50 (T-47D breast) | TGI (T-47D breast) | GI50 (UO-31 renal) |
| --- | --- | --- | --- | --- | --- | --- | --- | --- | --- | --- | --- | --- | --- | --- | --- | --- | --- |
| CC(C)C(N=C1CC2CCC1(C(=O)Nc1ccccc1O)C2(C)C)c1ccccc1 (stereo unspecified) | > 10 µM | > 10 µM | > 10 µM | > 10 µM | > 10 µM | > 10 µM | > 10 µM | > 10 µM | > 10 µM |  |  |  |  |  |  |  |  |
| O=C1C2Cc3ccccc3CN2C(=O)N1CN1CCCCC1 (stereo unspecified) | > 100 µM | > 100 µM | > 100 µM | > 100 µM | > 100 µM | > 100 µM |  | > 100 µM | > 100 µM |  |  |  |  |  |  |  |  |
| Cn1cnc([N+](=O)[O-])c1Sc1nnc(-c2ccc(Cl)cc2)n1C | > 100 µM | 55.7 µM | 15.6 µM | 34.8 µM | 46 µM | 27.4 µM | 46.7 µM | 31.6 µM | 32.8 µM | 17 µM |  |  |  |  |  |  |  |
| CN(C)c1ccc(/C=C(\C#N)C(=O)c2ccccc2)cc1Br | > 100 µM | > 100 µM | > 100 µM | > 100 µM | > 100 µM | > 100 µM | > 100 µM | > 100 µM | > 100 µM | 29.6 µM |  |  |  |  |  |  |  |
| COc1ccc(/C=N/NC(=O)NCCNCCO)cc1 | > 100 µM | > 100 µM | > 100 µM | > 100 µM | > 100 µM | > 100 µM | > 100 µM | > 100 µM | > 100 µM | > 100 µM |  |  |  |  |  |  |  |
| O=C(O)C(=Cc1ccc(-c2ccc([N+](=O)[O-])cc2)o1)C(=O)O | > 100 µM | > 100 µM | > 100 µM | > 100 µM | > 100 µM | > 100 µM | > 100 µM | > 100 µM | > 100 µM | > 100 µM | > 100 µM |  |  |  |  |  |  |
| COC(=O)C12CCC(CC1=O)C2(C)C (stereo unspecified) | > 100 µM | > 100 µM |  |  | > 100 µM | > 100 µM | > 100 µM | > 100 µM | > 100 µM | > 100 µM |  |  |  |  |  |  |  |
| CCCN1CCN(c2ccc3nc(-c4ccc5nc(-c6ccc(OCC)cc6)[nH]c5c4)[nH]c3c2)CC1 |  |  | 3.46 µM | 3.36 µM |  |  | 29.6 µM |  | 43.9 µM |  |  | 1.16 µM | 1.88 µM | 0.567 µM | 1.41 µM | 6.36 µM | 14.3 µM |
| N#Cc1ccccc1C#C/C=C\C#Cc1ccccn1 | 56.5 µM | 44.3 µM | 36.7 µM | 58.6 µM | 30.3 µM | 36 µM | 67.6 µM | 96.2 µM | 32.3 µM | 33.1 µM |  |  |  |  |  | 62.5 µM |  |
| COc1ccc(-c2oc(C=Nc3ccccc3)c([N+](=O)[O-])c2-c2ccc(OC)c(OC)c2)cc1OC | > 100 µM | > 100 µM | > 100 µM | > 100 µM | > 100 µM | > 100 µM | > 100 µM | > 100 µM | > 100 µM | > 100 µM |  |  |  |  |  |  |  |
| C#CCN1C(=O)CN2C(Cl)(Cl)C2(c2ccccc2)c2cc(Cl)ccc21 (stereo unspecified) |  | > 100 µM | 75.2 µM | > 100 µM | > 100 µM | > 100 µM |  | > 100 µM | > 100 µM | > 100 µM |  |  |  |  |  |  |  |
| CCN(CC)CCNC(=O)C1COc2ccc(-c3cc(=O)c4ccccc4o3)cc2O1 (stereo unspecified) | 49.8 µM | 36.2 µM | 32.5 µM | 56.7 µM | 33.4 µM | 33.4 µM | 42.7 µM |  | 29.6 µM | 35.4 µM |  |  |  |  |  |  |  |
| CC(=O)O[C@H]1C(=O)[C@@]2(C)C(C(OC(=O)c3ccccc3)[C@]3(O)CC(OC(=O)C(O)C(NC(=O)c4cccc(Cl)c4)c4ccccc4)C(C)=C1C3(C)C)[C@]1(OC(C)=O)CO[C@@H]1C[C@@H]2O (stereo partly specified) | > 10 µM | > 10 µM | 3.83 µM | > 10 µM | > 10 µM |  | 8.9 µM | > 10 µM |  |  | 8.72 µM |  |  |  |  |  |  |
| COC(=O)C1=C(C(=O)OC)SC2(S1)C(C(=O)OC)=C(C(=O)OC)Sc1c2ssc1=O | 31 µM | 8.76 µM | 0.581 µM | 5.02 µM | 2.69 µM | 3.26 µM | 11.4 µM | 3.04 µM | 3.15 µM | 2.7 µM | 3.55 µM |  |  |  |  |  |  |
| CCN1CC2(CO)CCC(OC)C34C5CC6C(OC)CC(O)(C5C6OC)C(O)(C(OC)C23)C14 (stereo unspecified) | > 375 µM | > 375 µM | > 375 µM | > 209 µM | > 375 µM | > 375 µM | > 375 µM |  | > 375 µM | > 375 µM |  |  |  |  |  |  |  |
| Cc1nc2cc3[nH]c4ccccc4c(=O)c3cc2s1 | > 100 µM | > 100 µM | > 100 µM | > 100 µM | > 100 µM |  | > 100 µM | > 100 µM | > 100 µM | > 100 µM |  |  |  |  |  |  |  |
